pEC50, pIC50: −log10 of the molar value. Read-outs that look alike come from different tables or passages of the source.
What was measured:
Ramos = test: CellTiter-Glo proliferation/viability assay; assay type: cell-based, human; conditions: Homo sapiens, Ramos, read-out: Ramos EC50
Aurora-A(h) = Aurora-A(h) (Homo sapiens (Human), UniProt O14965); test: IC50 profiler radiometric kinase assay (Millipore); assay type: biochemical; conditions: MISC
Protocol: (§1) In order to determine the relative enzyme selectivity of these amino naphthyridinones, representative amino naphthyridinones were evaluated for their ability to inhibit various kinases. Kinases were selected for a broad representation of the kinome (see FIG. 2: Kinases Evaluated). Compounds were evaluated using the IC50 profiler assay (Millipore), which measures substrate phosphorylation via γ-^33P-ATP transfer by the kinase of interest.
(§2) The assay directly measures the catalytic incorporation of phosphate onto kinase substrates. The kinase protein is incubated in buffer with substrate and γ-^33P-ATP. The reaction is initiated by the addition of the Mg-ATP mix. At the end of the reaction incubation time, the reaction is stopped by the addition of phosphoric acid solution and 10 μL of the reaction is spotted onto a filtermat, washed, dried and counted in scintillation fluid. […] In particular the amino naphthyridinones inhibited Abl and some but not all tested members of the Tec and Src families of tyrosine kinases, but not tyrosine-like kinases or the non-tyrosine kinases tested (See FIG. 2: Compound 1). […] Other known drugs with activity against BTK and SFKs, such as dasatinib and bosutinib, have activity against a broader array of tyrosine kinases as well as inhibiting non-tyrosine kinases (See FIG. 2: Dasatinib).

BTK(R28H)(h) = BTK(R28H)(h) (Homo sapiens (Human), UniProt Q06187, R28H); test: IC50 profiler radiometric kinase assay (Millipore); assay type: biochemical; conditions: TK
Protocol: as §1, §2

CDK7/cyclinH/MAT1(h) = CDK7/cyclinH/MAT1(h) (Homo sapiens (Human), UniProt P50613); test: IC50 profiler radiometric kinase assay (Millipore); assay type: biochemical; conditions: CMGC
Protocol: as §1, §2

CHK1(h) = CHK1(h) (Homo sapiens (Human), UniProt O14757); test: IC50 profiler radiometric kinase assay (Millipore); assay type: biochemical; conditions: CAMK
Protocol: as §1, §2

CK1δ(h) = CK1δ(h) (Homo sapiens (Human), UniProt P48730); test: IC50 profiler radiometric kinase assay (Millipore); assay type: biochemical; conditions: CK1
Protocol: as §1, §2

CSK(h) = CSK(h) (Homo sapiens (Human), UniProt P41240); test: IC50 profiler radiometric kinase assay (Millipore); assay type: biochemical; conditions: TK
Protocol: as §1, §2

EGFR(h) = EGFR(h) (Homo sapiens (Human), UniProt P00533); test: IC50 profiler radiometric kinase assay (Millipore); assay type: biochemical; conditions: TK
Protocol: as §1, §2

FGFR1(h) = FGFR1(h) (Homo sapiens (Human), UniProt P11362); test: IC50 profiler radiometric kinase assay (Millipore); assay type: biochemical; conditions: TK
Protocol: as §1, §2

Flt3(h) = Flt3(h) (Homo sapiens (Human), UniProt P36888); test: IC50 profiler radiometric kinase assay (Millipore); assay type: biochemical; conditions: TK
Protocol: as §1, §2

GSK3α(h) = GSK3α(h) (Homo sapiens (Human), UniProt P49840); test: IC50 profiler radiometric kinase assay (Millipore); assay type: biochemical; conditions: CMGC
Protocol: as §1, §2

Hck(h) = Hck(h) (Homo sapiens (Human), UniProt P08631); test: IC50 profiler radiometric kinase assay (Millipore); assay type: biochemical; conditions: TK
Protocol: as §1, §2

Hck(h) activated = Hck(h) activated (Homo sapiens (Human), UniProt P08631); test: IC50 profiler radiometric kinase assay (Millipore); assay type: biochemical; conditions: TK; activated = phosphorylated
Protocol: as §1, §2

Itk(h) = Itk(h) (Homo sapiens (Human), UniProt Q08881); test: IC50 profiler radiometric kinase assay (Millipore); assay type: biochemical; conditions: TK
Protocol: as §1, §2

JAK2(h) = JAK2(h) (Homo sapiens (Human), UniProt O60674); test: IC50 profiler radiometric kinase assay (Millipore); assay type: biochemical; conditions: TK
Protocol: as §1, §2

JNK1α1(h) = JNK1α1(h) (Homo sapiens (Human), UniProt P45983); test: IC50 profiler radiometric kinase assay (Millipore); assay type: biochemical; conditions: CMGC
Protocol: as §1, §2

Lyn(h) = Lyn(h) (Homo sapiens (Human), UniProt P07948); test: IC50 profiler radiometric kinase assay (Millipore); assay type: biochemical; conditions: TK
Protocol: as §1, §2

MAPK1(h) = MAPK1(h) (Homo sapiens (Human), UniProt P27361); test: IC50 profiler radiometric kinase assay (Millipore); assay type: biochemical; conditions: CMGC
Protocol: as §1, §2

MKK6(h) = MKK6(h) (Homo sapiens (Human), UniProt P52564); test: IC50 profiler radiometric kinase assay (Millipore); assay type: biochemical; conditions: STE
Protocol: as §1, §2

Met(h) = Met(h) (Homo sapiens (Human), UniProt P08581); test: IC50 profiler radiometric kinase assay (Millipore); assay type: biochemical; conditions: TK
Protocol: as §1, §2

PAK2(h) = PAK2(h) (Homo sapiens (Human), UniProt Q13177); test: IC50 profiler radiometric kinase assay (Millipore); assay type: biochemical; conditions: STE
Protocol: as §1, §2

PDGFRα(h) = PDGFRα(h) (Homo sapiens (Human), UniProt P16234); test: IC50 profiler radiometric kinase assay (Millipore); assay type: biochemical; conditions: TK
Protocol: as §1, §2

PKCα(h) = PKCα(h) (Homo sapiens (Human), UniProt P17252); test: IC50 profiler radiometric kinase assay (Millipore); assay type: biochemical; conditions: AGC
Protocol: as §1, §2

TGFBR1(h) = TGFBR1(h) (Homo sapiens (Human), UniProt P36897); test: IC50 profiler radiometric kinase assay (Millipore); assay type: biochemical; conditions: TKL
Protocol: as §1, §2

c-Kit(D816V)(h) = c-Kit(D816V)(h) (Homo sapiens (Human), UniProt P10721, D816V); test: IC50 profiler radiometric kinase assay (Millipore); assay type: biochemical; conditions: TK
Protocol: as §1, §2

c-Kit(h) = c-Kit(h) (Homo sapiens (Human), UniProt P10721); test: IC50 profiler radiometric kinase assay (Millipore); assay type: biochemical; conditions: TK
Protocol: as §1, §2

c-RAF(h) = c-RAF(h) (Homo sapiens (Human), UniProt P04049, Y340D/Y341D); test: IC50 profiler radiometric kinase assay (Millipore); assay type: biochemical; conditions: TKL
Protocol: as §1, §2

cSRC(h) = cSRC(h) (Homo sapiens (Human), UniProt P12931); test: IC50 profiler radiometric kinase assay (Millipore); assay type: biochemical; conditions: TK
Protocol: as §1, §2

CaMKI(h) = CaMKI(h) (Homo sapiens (Human), UniProt Q14012); test: IC50 profiler radiometric kinase assay (Millipore); assay type: biochemical; conditions: CAMK
CDK2/cyclinA(h) = CDK2/cyclinA(h) (Homo sapiens (Human), UniProt P24941); test: IC50 profiler radiometric kinase assay (Millipore); assay type: biochemical; conditions: CMGC
p70S6K(h) = p70S6K(h) (Homo sapiens, UniProt P23443); test: IC50 profiler radiometric kinase assay (Millipore); assay type: biochemical; conditions: AGC
[1] = biological target: PI3 Kinase (p110α/p85α)(h) (Homo sapiens (Human), UniProt P42336); test: IC50 profiler radiometric kinase assay (Millipore); assay type: biochemical; conditions: Lipid/Atypical
Lyn = Lyn (Homo sapiens (Human), UniProt P07948); test: biochemical
BTK = BTK (Homo sapiens (Human), UniProt Q06187); conditions: read-out: BTK IC50

c-Kit(D816V)(h), sequence (P10721 26-976 D816V): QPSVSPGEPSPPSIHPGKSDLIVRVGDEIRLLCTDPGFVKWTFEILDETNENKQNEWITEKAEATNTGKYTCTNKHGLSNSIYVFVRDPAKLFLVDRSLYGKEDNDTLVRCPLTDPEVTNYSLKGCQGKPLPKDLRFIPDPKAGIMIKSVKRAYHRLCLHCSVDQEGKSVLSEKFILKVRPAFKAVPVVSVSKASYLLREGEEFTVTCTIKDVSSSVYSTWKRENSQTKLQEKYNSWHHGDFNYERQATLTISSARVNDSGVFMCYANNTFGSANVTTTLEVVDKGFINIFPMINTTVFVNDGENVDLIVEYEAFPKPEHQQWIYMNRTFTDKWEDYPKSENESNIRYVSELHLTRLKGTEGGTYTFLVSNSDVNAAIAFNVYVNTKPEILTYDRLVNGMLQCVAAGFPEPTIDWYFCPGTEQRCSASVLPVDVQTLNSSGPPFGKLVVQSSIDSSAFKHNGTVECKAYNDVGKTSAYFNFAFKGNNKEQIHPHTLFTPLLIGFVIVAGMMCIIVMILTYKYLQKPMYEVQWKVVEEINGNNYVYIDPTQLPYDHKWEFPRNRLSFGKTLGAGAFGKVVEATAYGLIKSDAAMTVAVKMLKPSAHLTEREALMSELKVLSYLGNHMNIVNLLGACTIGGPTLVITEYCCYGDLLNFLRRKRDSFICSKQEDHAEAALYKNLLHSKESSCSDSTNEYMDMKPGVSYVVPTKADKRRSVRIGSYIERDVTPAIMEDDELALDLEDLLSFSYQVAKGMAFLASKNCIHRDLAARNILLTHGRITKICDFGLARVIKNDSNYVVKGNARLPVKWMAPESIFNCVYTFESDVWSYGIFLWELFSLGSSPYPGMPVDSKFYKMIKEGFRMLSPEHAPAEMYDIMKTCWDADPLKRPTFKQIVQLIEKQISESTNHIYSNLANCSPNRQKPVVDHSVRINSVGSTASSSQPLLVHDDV
c-Kit(h), sequence (P10721 26-976): as the sequence (P10721 26-976 D816V) above, with V791D counted along it
EGFR(h), sequence (P00533 25-1210): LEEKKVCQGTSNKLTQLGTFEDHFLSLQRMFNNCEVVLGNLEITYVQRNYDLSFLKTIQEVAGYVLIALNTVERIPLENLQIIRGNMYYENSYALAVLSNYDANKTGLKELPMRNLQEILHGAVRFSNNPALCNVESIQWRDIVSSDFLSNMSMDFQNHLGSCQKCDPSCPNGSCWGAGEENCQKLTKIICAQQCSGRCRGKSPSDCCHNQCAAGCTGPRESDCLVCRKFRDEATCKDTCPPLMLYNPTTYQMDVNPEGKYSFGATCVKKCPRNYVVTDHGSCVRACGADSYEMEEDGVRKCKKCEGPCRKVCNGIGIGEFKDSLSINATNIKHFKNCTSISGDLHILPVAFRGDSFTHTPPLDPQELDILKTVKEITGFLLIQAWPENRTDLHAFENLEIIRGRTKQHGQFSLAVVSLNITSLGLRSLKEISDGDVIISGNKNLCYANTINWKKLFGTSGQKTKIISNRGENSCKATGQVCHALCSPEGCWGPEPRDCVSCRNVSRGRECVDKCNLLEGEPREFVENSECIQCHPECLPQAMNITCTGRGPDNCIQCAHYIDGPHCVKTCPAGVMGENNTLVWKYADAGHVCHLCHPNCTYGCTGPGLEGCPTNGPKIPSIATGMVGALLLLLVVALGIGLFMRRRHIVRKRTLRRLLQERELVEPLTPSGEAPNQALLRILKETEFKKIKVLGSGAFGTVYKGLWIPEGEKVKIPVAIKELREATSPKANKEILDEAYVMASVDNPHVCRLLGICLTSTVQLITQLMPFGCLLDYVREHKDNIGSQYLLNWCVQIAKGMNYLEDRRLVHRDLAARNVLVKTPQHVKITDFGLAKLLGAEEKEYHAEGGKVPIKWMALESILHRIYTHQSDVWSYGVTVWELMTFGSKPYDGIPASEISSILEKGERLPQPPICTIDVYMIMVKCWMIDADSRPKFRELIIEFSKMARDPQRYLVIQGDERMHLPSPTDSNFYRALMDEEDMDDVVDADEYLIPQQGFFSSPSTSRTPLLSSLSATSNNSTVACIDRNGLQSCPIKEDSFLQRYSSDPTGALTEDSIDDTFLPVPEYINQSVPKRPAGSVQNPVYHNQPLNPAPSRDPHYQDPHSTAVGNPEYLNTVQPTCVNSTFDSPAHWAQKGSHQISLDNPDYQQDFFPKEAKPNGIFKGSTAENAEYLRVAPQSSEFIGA
CHK1(h), sequence (O14757 whole entry): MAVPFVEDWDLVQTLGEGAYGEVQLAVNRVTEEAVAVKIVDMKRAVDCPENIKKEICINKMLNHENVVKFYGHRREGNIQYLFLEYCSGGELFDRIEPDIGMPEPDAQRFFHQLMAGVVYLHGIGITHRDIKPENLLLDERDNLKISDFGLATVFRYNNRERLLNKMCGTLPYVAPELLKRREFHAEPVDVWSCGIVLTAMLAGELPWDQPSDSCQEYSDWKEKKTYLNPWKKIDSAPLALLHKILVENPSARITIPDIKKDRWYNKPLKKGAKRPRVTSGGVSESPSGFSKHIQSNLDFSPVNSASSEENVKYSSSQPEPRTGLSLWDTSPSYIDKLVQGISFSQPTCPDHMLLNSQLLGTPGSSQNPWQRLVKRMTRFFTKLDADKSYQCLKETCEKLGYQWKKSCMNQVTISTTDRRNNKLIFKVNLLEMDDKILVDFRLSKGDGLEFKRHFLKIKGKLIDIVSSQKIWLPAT
PAK2(h), sequence (Q13177 whole entry): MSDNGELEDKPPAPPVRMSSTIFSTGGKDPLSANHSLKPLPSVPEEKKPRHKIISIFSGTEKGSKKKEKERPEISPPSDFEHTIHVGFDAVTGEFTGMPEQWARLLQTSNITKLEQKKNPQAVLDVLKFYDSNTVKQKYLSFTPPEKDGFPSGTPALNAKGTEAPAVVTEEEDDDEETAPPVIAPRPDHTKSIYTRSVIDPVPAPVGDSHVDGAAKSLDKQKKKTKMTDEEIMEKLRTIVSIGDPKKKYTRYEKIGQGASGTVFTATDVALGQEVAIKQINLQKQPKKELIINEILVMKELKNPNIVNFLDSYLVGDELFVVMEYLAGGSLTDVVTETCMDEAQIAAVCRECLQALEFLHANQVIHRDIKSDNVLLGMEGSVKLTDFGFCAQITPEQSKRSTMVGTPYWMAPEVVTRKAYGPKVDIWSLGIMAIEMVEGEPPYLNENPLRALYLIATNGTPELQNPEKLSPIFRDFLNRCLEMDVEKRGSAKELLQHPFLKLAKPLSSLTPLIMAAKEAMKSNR
CK1δ(h), sequence (P48730 whole entry): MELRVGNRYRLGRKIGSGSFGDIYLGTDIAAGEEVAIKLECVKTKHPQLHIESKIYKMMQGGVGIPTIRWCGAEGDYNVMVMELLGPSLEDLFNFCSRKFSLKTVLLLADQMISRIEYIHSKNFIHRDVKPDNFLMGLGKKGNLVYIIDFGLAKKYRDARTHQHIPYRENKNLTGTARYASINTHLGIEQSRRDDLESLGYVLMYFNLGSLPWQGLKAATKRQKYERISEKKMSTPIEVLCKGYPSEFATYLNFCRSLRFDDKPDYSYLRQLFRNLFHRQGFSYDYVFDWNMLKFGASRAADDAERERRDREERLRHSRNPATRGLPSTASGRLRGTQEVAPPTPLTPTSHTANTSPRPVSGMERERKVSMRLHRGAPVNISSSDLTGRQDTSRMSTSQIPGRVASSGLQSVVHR
JNK1α1(h), sequence (P45983 other isoform, or with tags, fused parts or gaps): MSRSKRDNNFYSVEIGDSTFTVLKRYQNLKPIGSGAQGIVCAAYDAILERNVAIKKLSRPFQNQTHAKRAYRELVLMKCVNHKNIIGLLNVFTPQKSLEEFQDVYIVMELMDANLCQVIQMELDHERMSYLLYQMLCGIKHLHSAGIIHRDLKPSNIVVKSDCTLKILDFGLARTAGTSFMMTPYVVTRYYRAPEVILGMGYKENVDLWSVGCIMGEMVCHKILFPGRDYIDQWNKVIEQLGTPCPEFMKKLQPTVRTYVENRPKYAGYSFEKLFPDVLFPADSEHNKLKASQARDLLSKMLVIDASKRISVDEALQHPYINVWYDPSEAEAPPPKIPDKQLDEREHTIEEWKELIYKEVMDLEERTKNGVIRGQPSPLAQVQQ
CSK(h), sequence (P41240 whole entry): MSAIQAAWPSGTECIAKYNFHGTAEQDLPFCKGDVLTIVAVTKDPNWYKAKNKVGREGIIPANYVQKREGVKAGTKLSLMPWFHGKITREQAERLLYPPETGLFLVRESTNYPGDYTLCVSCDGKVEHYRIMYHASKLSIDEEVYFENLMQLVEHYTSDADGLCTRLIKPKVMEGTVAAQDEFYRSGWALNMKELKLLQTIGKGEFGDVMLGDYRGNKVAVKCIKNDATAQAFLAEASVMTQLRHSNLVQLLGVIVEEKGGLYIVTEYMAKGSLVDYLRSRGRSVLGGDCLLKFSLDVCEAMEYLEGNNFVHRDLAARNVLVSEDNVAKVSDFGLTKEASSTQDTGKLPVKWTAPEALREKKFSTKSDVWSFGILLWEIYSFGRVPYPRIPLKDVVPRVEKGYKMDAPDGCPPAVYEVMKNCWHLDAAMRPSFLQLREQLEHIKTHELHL
TGFBR1(h), sequence (P36897 34-503): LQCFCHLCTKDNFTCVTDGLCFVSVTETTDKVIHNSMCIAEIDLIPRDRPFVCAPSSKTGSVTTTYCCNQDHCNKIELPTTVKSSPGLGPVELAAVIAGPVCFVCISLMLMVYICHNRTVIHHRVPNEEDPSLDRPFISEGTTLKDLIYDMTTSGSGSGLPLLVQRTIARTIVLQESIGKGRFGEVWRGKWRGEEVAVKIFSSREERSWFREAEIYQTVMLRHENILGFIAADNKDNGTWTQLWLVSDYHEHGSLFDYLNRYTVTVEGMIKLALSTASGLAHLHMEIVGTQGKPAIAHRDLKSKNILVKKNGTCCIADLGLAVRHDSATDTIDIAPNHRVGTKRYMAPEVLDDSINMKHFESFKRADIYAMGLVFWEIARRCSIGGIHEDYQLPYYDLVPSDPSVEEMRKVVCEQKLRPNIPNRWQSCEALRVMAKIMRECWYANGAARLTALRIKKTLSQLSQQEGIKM

In the case of `CCN(CC)CCOc1ccc(Nc2cc3c(cn2)cc(-c2ccccc2)c(=O)n3CC)nc1` [Compound 1, 7-[5-(2-Diethylamino-ethoxy)-pyridin-2-ylamino]-1-ethyl-3-phenyl-1H-[1, 6]naphthyridin-2-one], the pEC50 (Ramos; 48 hrs) was 5.00 to 6.00, the pIC50 (Aurora-A(h)) was under 6.00 and the pIC50 (BTK(R28H)(h)) was 6.00 to 6.30. It also gave a pIC50 (CDK7/cyclinH/MAT1(h)) of under 6.00, a pIC50 (CHK1(h)) of under 6.00 and a pIC50 (CK1δ(h)) of under 6.00. The pIC50 (CSK(h)) was 6.00 to 6.30, the pIC50 (EGFR(h)) was 6.00 to 6.30 and the pIC50 (FGFR1(h)) was over 8.00. It also gave a pIC50 (Flt3(h)) of under 6.00, a pIC50 (GSK3α(h)) of under 6.00 and a pIC50 (Hck(h)) of 7.00 to 8.00. The pIC50 (Hck(h) activated) was over 8.00, the pIC50 (Itk(h)) was under 6.00 and the pIC50 (JAK2(h)) was under 6.00. It also gave a pIC50 (JNK1α1(h)) of under 6.00, a pIC50 (Lyn(h)) of over 8.00 and a pIC50 (MAPK1(h)) of under 6.00. It also gave a pIC50 (MKK6(h)) of under 6.00, a pIC50 (Met(h)) of under 6.00 and a pIC50 (PAK2(h)) of under 6.00. For the same compound, the pIC50 (PDGFRα(h)) was 6.30 to 7.00, the pIC50 (PKCα(h)) was under 6.00 and the pIC50 (TGFBR1(h)) was 6.30 to 7.00. It also gave a pIC50 (c-Kit(D816V)(h)) of 6.30 to 7.00, a pIC50 (c-Kit(h)) of 6.30 to 7.00 and a pIC50 (c-RAF(h)) of 6.30 to 7.00. For the same compound, the pIC50 (cSRC(h)) was over 8.00, the pIC50 (CaMKI(h)) was under 6.00 and the pIC50 (CDK2/cyclinA(h)) was under 6.00. For the same compound, the pIC50 (p70S6K(h)) was under 6.00, the pIC50 [1] was under 6.00 and the pIC50 (Lyn) was 6.00 to 7.00. For the same compound, the pIC50 (BTK) was over 7.00.

`CCn1c(=O)c(-c2ccccc2)cc2cnc(Nc3ncc(CCN(C)C)s3)cc21` [Compound 2, 7-[5-(2-Dimethylamino-ethyl)-thiazol-2-ylamino]-1-ethyl-3-phenyl-1H-[1,6]naphthyridin-2-one] was tested, and the pEC50 (Ramos; 48 h) was 5.00 to 6.00, the pIC50 (Aurora-A(h)) was under 6.00 and the pIC50 (BTK(R28H)(h)) was under 6.00. For the same compound, the pIC50 (CDK7/cyclinH/MAT1(h)) was under 6.00, the pIC50 (CHK1(h)) was under 6.00 and the pIC50 (CK1δ(h)) was under 6.00. It also gave a pIC50 (CSK(h)) of under 6.00, a pIC50 (EGFR(h)) of under 6.00 and a pIC50 (FGFR1(h)) of 7.00 to 8.00. The pIC50 (Flt3(h)) was under 6.00, the pIC50 (GSK3α(h)) was under 6.00 and the pIC50 (Hck(h)) was 6.00 to 6.30. For the same compound, the pIC50 (Hck(h) activated) was 6.30 to 7.00, the pIC50 (Itk(h)) was under 6.00 and the pIC50 (JAK2(h)) was under 6.00. It also gave a pIC50 (JNK1α1(h)) of under 6.00, a pIC50 (Lyn(h)) of over 8.00 and a pIC50 (MAPK1(h)) of under 6.00. The pIC50 (MKK6(h)) was under 6.00, the pIC50 (Met(h)) was under 6.00 and the pIC50 (PAK2(h)) was under 6.00. It also gave a pIC50 (PDGFRα(h)) of 6.00 to 6.30, a pIC50 (PKCα(h)) of under 6.00 and a pIC50 (TGFBR1(h)) of 6.00 to 6.30. For the same compound, the pIC50 (c-Kit(D816V)(h)) was under 6.00, the pIC50 (c-Kit(h)) was 6.30 to 7.00 and the pIC50 (c-RAF(h)) was 6.30 to 7.00. For the same compound, the pIC50 (cSRC(h)) was 6.30 to 7.00, the pIC50 (CaMKI(h)) was under 6.00 and the pIC50 (CDK2/cyclinA(h)) was under 6.00. For the same compound, the pIC50 (p70S6K(h)) was under 6.00, the pIC50 [1] was under 6.00 and the pIC50 (Lyn; Lyn IC50) was 5.30 to 6.00. The pIC50 (BTK) was under 5.30.

From patent US9714247B2, “Multiple kinase pathway inhibitors” (Mannkind Corporation, priority 2012, dated 2017)
